One substance from EP0189971A2, “Composition containing a thiadiazole derivative and method for treating plants against bacteria” (PALIMPORT LTD., priority 1985, dated 1986) can be followed below.

For assay [1], the system named is Pseudomonas tomato. The assay can be described thus: Preventative foliage spraying of tomato seedlings in greenhouse. The class given is in vivo. Particulars: for Average level of ill seedlings: Cupric acetate 0.15 %, levels 0-5. The method, then:
The trials were carried out against bacterial diseases in the following crops: • a. In pepper - Bacterial spot of pepper (Xanthomonas vesicatoria). • b. In tomatoes - Bacterial specic of tomato (Pseudomonas tomato). • c. In cauliflower - Black rot (Xanthomonas camoestris). • 2. […].
In trials that were carried out in the greenhouse, plants at age of 3 - 5 leaves that were grown in "speedling system", were used. Plants were allowed to grow in the original trays without contact between them.
About 48 hours before the infection, the bacterial pathogen was transferred (for multiplication) to a suitable growth medium (see materials and methods of para I hereinbefore)at optimal temperature until all the medium was covered by bacteria. Then a suspension of bacteria at concentration of 1 x 10' - […] per cm^2 was prepared. The bacterial suspension was sprayed to runoff with a hand sprayer on to the leaves of the test plants. Spraying was made on dry leaves with the addition of carborundum to the spray solution in order to ensure better infection. In trials where the efficacy of the treatments was evaluated in preventative treatments, the application was given a few hours before the bacterial infection.
In the preventative treatments, the products were applied a few hours before the bacterial infection. In the curative treatments, the application was carried out 20 hours after bacterial infection. After application, when plants dried out they were transferred to a fog chamber with controlled conditions.
In trials that were carried out in the greenhouse, the plants were transferred after the application and infection, to control conditions of fogginess and suitable temperatures for bactena, till the end of the trial.
Infection was evaluated in the seedlings according to the following key: 0 = healthy seedling, without symptoms of disease, 5 = complete coverage of the seedling with spots of disease, or dead seedling. The intermediate degrees were given according to the severity of the disease in the leaves.
In tomatoes, several trials were carried out in greenhouse under conditions of fog chamber and artificial infection in order to evaluate the efficacy of Terrazole (trade mark) and copper, in different rates and combinations, in preventing and controlling bacterial diseases specic of tomato caused by Pseudomonastomato.
In one trial, various treatments were examined in prevention of disease, as appears in Table IX.

In assay [2] the test system is Pseudomonas tomato, Xanthomonasvesicatoria, X. translucens, X. camoestris. Particulars: 0.8% cupric acetate in aqueous solution; each of the four species.
Protocol: G. Evaluation of product activity by direct contact with the bacteria: • The efficacy of a number of products by a direct contact with the bacteria was checked as follows: Preparation of solutions of different concentrations of the examined products. Soaked bacteria suspension in the solutions for a period of 10 minutes. Filtration of the solution containing bacteria through milipore disc, so that the bacteria are concentrated on the disc. Rinsing the disc with distilled water. Placing the disc in a measured amount of water with 0.1 % agar, and shaking the disc in this solution in order to transfer the bacteria from the disc to the solution. Making 10x dilutions and direct placing on suitable medium (see section F1 above).
In this trial, 11 concentrations of cupric-acetate in aqueous solution were checked, from 0.001 - 0.8% by weight. […] All treatments were checked against the four species of bacteria mentioned.
Another assay has as its system X. campestris. Particulars: for Percent of infected seedlings: cupric acetate 0.1 %. The method, then:
(§1) In this method, the efficacy of the disinfection is examined by a bioassay. After seed disinfection, the seeds are dried and sown in the soil, and kept in a humid cell with suitable temperature. The efficacy of the treatment is determined by the level of infestation in the seedlings.
Trials were carried out in seeds of cabbage and cauliflower infested with Xanthomonas camoestris. […] Seeds were dipped in all treatments for 10 to 20 minutes at temperatures of 25°C and 45°C.
The efficacy of the disinfection process was checked in a bio assay system.

The test system of assay [3] is Pseudomonas tomato. Particulars: cupric acetate 0.1 %. How it is done: In all trials, seed disinfection was carried out by dipping the seeds in different chemical solutions. The variable factors were: • 1. Different times of dipping: 10, 20, 30 and 60 minutes. • 2.. Different temperatures of dipping: room temperature (20°C), and a higher temperature (45°C).
as §1
In tomatoes, disinfection trials were carried out against two bacterial diseases. Most of the work was done in order to examine the efficacy of the mixtures in controlling bacterial specic of tomato caused by Pseudomonas tomato. Later on some trials were carried out against a relatively new disease in Israel - "rotten pith" caused by P. coruoata. Trial 7
Also, different dipping times and temperatures were checked. Efficacy of disinfection was evaluated by assessing the disease appearance in the seedlings which was caused by infection of the treated seeds.

Another assay relates to X. translucens. Particulars: for Bacteria per gr. seeds: cupric acetate 0.1%, infected seeds. The method, then:
In this method, live bacterial pathogens that survived the seed disinfection, were counted. Treated seeds were dried by vaporization. Five grams of dried seeds from each treatment were ground in a grinder of 20 mesh and transferred to a solution containing 0.1% agar in water and were shaken for 30 minutes. From each sample, 10x dilutions were prepared. From each of the various dilutions, 0.1 ml was taken and placed in a suitable medium in a petri-dish, with a Drigalski stick. After 4 days of incubation at temperature of 27°C, colonies of the bacterial pathogens were counted in each petri-dish.
The assessment of efficacy was carried out by counting of the number of bacteria that remained alive in the seeds after the disinfection and in a bio-assay system. (See Materials and Methods).
In this trial the efficacy of the products in disinfecting wheat seeds was tested at various periods of time from 5 to 60 minutes. Disinfected seeds were compared with seeds treated with water (check) and with seeds that were defined in laboratory as seeds clean from the pathogen. Efficacy of the treatments was measured by counting the amount of bacteria that remained alive in the seeds. The trial was carried out in five replicates.

Like-named read-outs stand apart in the source and are kept apart here.

Turning to cupric acetate, the “Percent of ill seedlings” value in the assay on Pseudomonas tomato [1] (Cupric acetate 0.1 %, preventative spraying, ten days after the infection) turned out to be 34.2%. Besides, the “Average level of ill seedlings” value in the assay with Pseudomonas tomato [1] (9 days after infection) was found to be 0.30; in the assay on Pseudomonas tomato [1] (11 days after infection) it was 1.85; with Pseudomonas tomato [1] (13 days after infection), 2.80. Besides, the bacteria remained alive result in assay [2] is reported as “about 10^3 bacteria per cm^2 of water”. Moreover, the “Percent of infected seedlings” value in the assay with X. campestris (25 °C 10 min.) came to 78.6%; in the assay on X. campestris (25 °C 20 min.), 56.0%; in the assay with X. campestris (40 °C 10 min.), 45.0%; in the assay on X. campestris (40 °C 20 min.) it was 35.0%. Besides, the disease control in the assay on X. campestris (cupric acetate, at any of the trial conditions) was not above 38%. For the same substance, the “% Infected plants” value turned out to be 28.0% with Pseudomonas tomato [3] (dipping 10 minutes, 25 °C); 17.0% in the assay on Pseudomonas tomato [3] (dipping 10 minutes, 40 °C); 27.5% with Pseudomonas tomato [3] (dipping 20 minutes, 25 °C); 14.0% in the assay with Pseudomonas tomato [3] (dipping 20 minutes, 40 °C). Also, the “Improvement in control, in comparison with the untreated control” value in the assay on Pseudomonas tomato [3] (dipping 10 minutes, 25 °C) came out at 37.8; in the assay with Pseudomonas tomato [3] (dipping 10 minutes, 40 °C), 62.2; in the assay on Pseudomonas tomato [3] (dipping 20 minutes, 25 °C), 38.9; with Pseudomonas tomato [3] (dipping 20 minutes, 40 °C), 68.9. In addition, the “Bacteria per gr. seeds” value in the assay on X. translucens (5 minutes) came out at 6040 b per gr. seeds; with X. translucens (10 minutes) it was 2920 b per gr. seeds; with X. translucens (20 minutes), 496 b per gr. seeds. In addition, the “control in comparison with the untreated seeds” value in the assay on X. translucens (cupric acetate, dipping 20 minutes) is 94%.
